Laboratory results taken from publication PMC7692187, “Rapid In Vivo Validation of HDAC Inhibitor-Based Treatments in Neuroblastoma Zebrafish Xenografts” (Pharmaceuticals, 2020).
pIC50: −log10 of the molar value.

Tests used:
zebrafish larvae = experiment: Toxicity test: three-day treatment of fish larvae without injection of tumor cells; type: in vivo, zebrafish (Danio rerio); details: three-day incubation time at 34 °C, drug in buffer
Experimental: (§1) For treatment, larvae were incubated in freshly prepared buffer solution supplemented with 0.2 mM PTU, containing the drug of interest at increasing concentrations. Drug-containing solutions were administered at the beginning of the experiment and were not replaced during the incubation period. Solvent control was applied in the same manner as the drug treatments.

cleaved caspase-3 = experiment: IHC staining for cleaved caspase-3 in SK-N-BE(2)-C zebrafish xenografts; type: in vivo, human; details: 48 h exposure, compared to solvent-treated control
Experimental: (§2) Due to this relatively short treatment duration (48 h), the apoptosis induction of the combination therapy is predominant over the antiproliferative effect.
(§3) Left panel: representative images of sections stained against cleaved caspase-3. […] The number of positive cells was calculated as the ratio of positive to total cells counted, relative to solvent. […] (b) Left panel: representative images of sections stained against phospho-histone H3, a marker specific for cells undergoing mitosis. […] The number of positive cells (%) was calculated as the ratio of positive to total cells counted.
(§4) Following fixation (24 h at 4 °C) in Special Fixative for Anatomy and Histology (Morphisto, Frankfurt am Main, Germany), xenografted zebrafish larvae were transferred to embedding cassettes equipped with biopsy pads, dehydrated, and infiltrated with paraffin. […] FIJI software and a macro program were employed for quantitative analysis of the xenograft slides, while the analysis of slides obtained from neuroblastoma patients was carried out manually. All quantitative analyses were performed in a blinded fashion on the xenograft slides (five tissue sections per zebrafish larva), which were obtained from at least two xenotransplantation replicates.

phospho-histone H3 = experiment: IHC staining for phospho-histone H3 (pHH3) in SK-N-BE(2)-C zebrafish xenografts; type: in vivo, human; details: 48 h exposure; solvent-treated 47%
Experimental: as §2, §3, §4

xenografted tumor cells = experiment: Dose response in zebrafish xenografts: relative IC50 from the change in tumor volume; type: in vivo, human; details: Danio rerio, compared to solvent, drug applied to surrounding water, n = 3–5 fish per concentration; for pIC50: 48 h treatment from 24 hpi
Experimental: (§5) To determine optimal drug concentrations, larvae bearing xenografted tumor cells were incubated with increasing drug concentrations 24 h post implantation (hpi), ranging from the concentrations used in previous cell culture experiments to the MTD(larvae) (Figure 2a). […] Using these concentrations, we evaluated whether HDACis were able to reach their specific enzymatic targets.
(§6) Right: representative images of immunohistochemical staining (c) Left: quantification of staining for acetylated histone H3. Right: representative images of immunohistochemical staining.
as §1

[1] = tested on: acetylated α-tubulin (substrate of HDAC6); experiment: IHC staining for acetylated α-tubulin in SK-N-BE(2)-C zebrafish xenografts; type: in vivo, human; details: 50 µM, 48 h, SK-N-BE(2)-C xenografts, versus solvent
Experimental: as §5, §6
(§7) Following fixation (24 h at 4 °C) in Special Fixative for Anatomy and Histology (Morphisto, Frankfurt am Main, Germany), xenografted zebrafish larvae were transferred to embedding cassettes equipped with biopsy pads, dehydrated, and infiltrated with paraffin. Briefly, fixed larvae were dehydrated using Leica ASP300S tissue processor (Leica Biosystems, Wetzlar, Germany) through incubation in aqueous solutions of increasing ethanol concentration (1 h in 50% ethanol, 2 h in 70% ethanol, 2 h in 80% ethanol, 1 h in 96% ethanol, 3 h in absolute ethanol) and thereafter incubated with xylene for 5 h. Next, samples were transferred to liquid paraffin at 60 °C and allowed to infiltrate for 5 h.

SK-N-BE(2)-C cells = experiment: Doxorubicin accumulation in engrafted tumor cells and zebrafish tissues; type: in vivo, human; details: tubastatin A 50 µM with doxorubicin 110 ng/mL, 48 h, relative to doxorubicin alone
Experimental: Doxorubicin has an intrinsic fluorescence due to the presence of a hydroxy-substituted anthraquinone chromophore.
(b,c) Representative images (b) and quantification (c) of zebrafish larvae engrafted with Hoechst stained and doxorubicin-treated SK-N-BE(2)-C cells. Larvae, except of unstained larvae, were exposed for 48 h to doxorubicin (red fluorescence) and tubastatin A or solvent. Red fluorescence of doxorubicin was visualized by confocal microscopy and normalized to tumor area. Results are presented as log2 fold change (FC) relative to doxorubicin alone. […] One-way ANOVA with Tukey’s multiple comparison test, scale bar = 50 µm.
SK-N-BE(2)-C cells were incubated with Hoechst nucleic acid dye (Thermo Fisher Scientific) at a concentration of 10 µg/mL for 30 min at 37 °C. […]
Zebrafish larvae engrafted with Hoechst-stained SK-N-BE(2)-C cells were exposed to solvent, doxorubicin, or doxorubicin combined with tubastatin A for 48 h. Red fluorescence of doxorubicin was visualized by confocal microscopy. Doxorubicin has an intrinsic fluorescence due to the presence of a hydroxy-substituted anthraquinone chromophore, with typical excitation and emission maxima in the range of 500 nm and 552–585 nm, respectively. Total fluorescence intensity in the tumor area (determined by nuclear staining) was defined as that above the threshold set by the solvent group and was quantified using a macro program.

[2] = tested on: acetylated histone H3 (substrate of HDAC1–3); experiment: IHC staining for acetylated histone H3 in SK-N-BE(2)-C zebrafish xenografts; type: in vivo, human; details: 48 h exposure at IC50 concentrations (tubastatin A 50 µM), SK-N-BE(2)-C xenografts
Experimental: as §5, §6, §7

COc1cccc2c1C(=O)c1c(O)c3c(c(O)c1C2=O)C[C@@](O)(C(=O)CO)C[C@@H]3O[C@H]1C[C@H](N)[C@H](O)[C@H](C)O1 [doxorubicin]
Maximum Tolerated Dose (MTD) (zebrafish larvae): 500 ng/mL | number of cells positive for cleaved caspase-3 (cleaved caspase-3): increased | average number of tumor cells per slide positive for pHH3 (phospho-histone H3): 38% | IC50 (xenografted tumor cells; 48 h treatment): 0.11 µg/mL

Cc1[nH]c2ccccc2c1CCNCc1ccc(/C=C/C(=O)NO)cc1 [panobinostat]
Maximum Tolerated Dose (MTD) (zebrafish larvae): 1 µM | pIC50 (xenografted tumor cells): 6.70

CN1CCc2c(c3ccccc3n2Cc2ccc(C(=O)NO)cc2)C1 [tubastatin A]
increase of acetylated α-tubulin [1]: 5 fold | Maximum Tolerated Dose (MTD) (zebrafish larvae): 200 µM | doxorubicin accumulation in zebrafish tissues and engrafted tumor cells (SK-N-BE(2)-C cells): increased | pIC50 (xenografted tumor cells): 4.30 | cells stained positive for ac-histone H3 [2]: not acetylated H3

O=C(CCCCCCC(=O)Nc1ccccc1)NO [vorinostat]
Maximum Tolerated Dose (MTD) (zebrafish larvae): 100 µM | number of cells positive for cleaved caspase-3 (cleaved caspase-3): increased | average number of tumor cells per slide positive for pHH3 (phospho-histone H3): 30%
